Tests used:
[1] = tested on: Senna tora (sickle senna); test: Field trial, herbicide control of Senna tora, with and without simulated rain; type: in vivo; conditions: 30 days after treatment, 720 g ae/ha
Text: Statistical calculations were done on the means.

[2] = tested on: Poa pratensis (meadowgrass or Kentucky blue grass); test: Greenhouse trial, sulfonylurea herbicides for grass weed control; type: in vivo; conditions: mean of 3 replicates ± SD
Description: Greenhouse trials were carried out where the effect of ADS-1 on the efficacy of the sulfonylurea herbicides nicosulfuron (4.2% SC Motivell from BASF) and rimsulfuron (25% WG Cato from Dupont) for grass weed control was tested. Seed of the grass Poa pratensis (meadowgrass or Kentucky blue grass) was densely sown in pots and grown for 6 weeks until reaching a height of about 25 cm. The herbicides were tank mixed with the adjuvant ADS-1 at doses given also in the table. […] Researchers trained in the art have knowledge about such technology, and about the method of assessment.

SMILES: O=C(O)CNCP(=O)(O)O [Glyphosate, glyphosate]
- Control (%) of Senna tora ([1]; with 4 mm rain aftertreatment): 75.0 d %
- Control (%) of Senna tora ([1]; without rain aftertreatment): 96.0 a %

SMILES: COc1cc(OC)nc(NC(=O)NS(=O)(=O)c2ncccc2C(=O)N(C)C)n1 [Nicosulfuron, nicosulfuron]
- % Control ([2]; Table 9, dose/ha 25 ml Motivell): 87 ± 3%

SMILES: CCS(=O)(=O)c1cccnc1S(=O)(=O)NC(=O)Nc1nc(OC)cc(OC)n1 [Rimsulfuron, rimsulfuron]
- % Control ([2]; Table 10, dose/ha 10 g Cato): 43 ± 6%

From patent US20070213226A1, “AGROCHEMICAL COMPOSITIONS COMPRISING ALKYLENEDIOL-MODIFIED POLYSILOXANES” (priority 2006, published 2007)
